Measured values published in article PMC10914731, “Homo-BacPROTAC-induced degradation of ClpC1 as a strategy against drug-resistant mycobacteria” (Nature Communications, 2024).
Where “and” joins values, the source holds several entries; their conditions need not be identical. Identical values can stand only once. Like-named read-outs stand apart in the source and are kept apart here.

Legend:
[1] = Hepatocyte stability, mice; type: in vitro ADME; details: clearance in hepatocytes
Summary of the method: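 Clearance, expressed as % of liver blood flow (% Qh), derived from parent-compound half-life by the well-stirred model, with HPLC-MS/MS quantitation after acetonitrile quench. Test compound at 1 µM final added to mouse hepatocyte suspension in 50% serum after 15–30 min acclimation at 37 °C; six samples over up to 6 h.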

[2] = biological target: ClpC1-NTD substrate, M. tuberculosis ClpC1P1P2 (Mycobacterium tuberculosis, UniProt P9WPC9); assay: biochemical; type: biochemical; details: Mtb
in vivo [3] = type: in vivo, BALB/cAnNCrl mice
Procedure: (§1) The in-life experimental procedures were conducted in strict compliance with German and European animal welfare legislation in an AAALAC-accredited facility. Male BALB/cAnNCrl mice (Charles River Laboratories Research Models and Services, 97633 Sulzfeld, Germany) were used. Animals were 9 weeks old at dosing with a body weight of 21.6–24.3 g. Animals were delivered free of pathogens according to FELASA recommendations with a health certificate provided by the breeder. Upon receipt, the state of health and sex was checked. Animals acclimatized for at least 5 days before the commencement of the in-life phase. During acclimation, animals were group-housed in individually ventilated cages, on birch wood granulate bedding with species-specific enrichment (nesting material, mouse igloo, gnawing wood). During experimental conduct, animals were housed in conventional cages with elevated grid floors. Grid floor was used to avoid contamination with test item material excreted via urine and feces and subsequent reuptake during fur grooming. No bedding and enrichment were provided except a cage divider, which can be used as a shelter. Animals always had unlimited access to food and water and received a pelleted, total pathogen-free maintenance diet and tap drinking water, sterilized by filter.
In case of incomplete dissolution, the formulation was filtered at 40 °C (non-pyrogenic sterile-R filter, 0.2 µm). All formulations were stirred warm until administration. Actual test item content was determined bioanalytically.
(§2) Male BALB/cAnNCrl mice (n = 3 per test item and administration route) received a bolus dose of the formulated test item(s) (1 mg/kg iv, 30 mg/kg po) at t = 0 h, and whole blood samples were collected subsequently (35 µl at 0.1 (iv) / 0.25 (po), 0.5, 1, 2, 4, 6 h; 600 µl at sacrifice after 24 h). Animals were euthanized by exsanguination in deep isoflurane anesthesia. Whole blood samples were immediately stored on ice at about 4 °C. Plasma was separated by centrifugation at approximately 10,000 × g for 5 m at +4 °C. Centrifugation of each blood sample was started within 10 m after collection. A single aliquot of at least 15 µL of plasma was prepared and immediately stored at −20 ± 5 °C.
(§3) Sample proteins were precipitated with ACN (1 + 12, v/v) containing internal standard, and supernatants analyzed by quantitative UPLC-MS/MS: Phenomenex Luna Omega C18, 2.1 × 50 mm, 1.6 µm, 40 °C, gradient between 10% - 90% ACN with 0.1% formic acid. LogD determination: Lipophilicity of the test items, expressed as chromLogD7.5, was assessed by measuring their chromatographic retention times on C18-material. The chromatographic retention versus logD7.5 values of a series of thirteen n-alkan-2-ones (2-butanone – 2-hexadecanone) served as lipophilicity calibration.

in vivo [4] = type: in vivo, BALB/cAnNCrl mice; details: BLOQ <1.00 nmol/L
Procedure: as §1
On the day before dosing, test item(s) were suspended in kleptose (20% in WFI) under continuous stirring (3.0 mg/ml). Following 2 min vortexing and 1 h stirring, the formulation was sonicated at 60 °C for 30 min and stirred at ambient temperature overnight. Before dosing, the formulation was vortexed for 2 min followed by ultraturrax treatment for 2 min.
as §2, §3

Msm #607 = assay: Minimum bactericidal concentration (MBC), Msm #607; type: cell-based, Mycobacterium smegmatis; details: Mycolicibacterium smegmatis
Mtb H37Rv = assay: Minimum bactericidal concentration (MBC), Mtb H37Rv; type: cell-based, Mycobacterium tuberculosis; details: Mycobacterium tuberculosis, H37RV
[5] = test system: non-replicating cells of Mtb H37Rv; type: cell-based, Mycobacterium tuberculosis; details: three replicate columns
[6] = iv bolus, individual animals 1-3
[7] = iv bolus, mice, Mean, BLOQ <1.00 nmol/l
[8] = male, BALB/cAnNCrl, mouse, in vivo, iv, 0.0677 umol/kg, iv bolus, individual animals 1-3
[9] = male, BALB/cAnNCrl, mouse, in vivo, iv, 0.0677 umol/kg, iv bolus, mice, Mean
[10] = oral gavage 30 mg/kg, mice, Mean
[11] = oral gavage, individual animals 1-3

For `CO[C@H](c1ccccc1)[C@@H]1NC(=O)[C@H](C)NC(=O)[C@H](C[C@@H](C)CO)N(C)C(=O)[C@H](Cc2cn(Cc3cn(CCOCCn4cc(Cn5cc(C[C@@H]6NC(=O)[C@H](C(C)C)NC(=O)[C@H](CC(C)C)N(C)C(=O)[C@H](C(C)C)NC(=O)[C@H]([C@H](OC)c7ccccc7)NC(=O)[C@H](C)NC(=O)[C@H](C[C@@H](C)CO)N(C)C6=O)c6ccccc65)nn4)nn3)c3ccccc23)NC(=O)[C@H](C(C)C)NC(=O)[C@H](CC(C)C)N(C)C(=O)[C@H](C(C)C)NC1=O` [Compound 6], the “Hepatocyte Mice” value [1] was 15 %Qh, the “1-Dmax, single measurements” value ([2]; Measurement 1-4) was 67.3% and 57.3% and 45.9% and 46.4% and the 1-Dmax (percent substrate remaining at maximal degradation) ([2]; mean of the measurements, read-out: 1-Dmax, Mean) was 54%. The DC50 ([2]; mean of the measurements, read-out: DC50, Mean) was 5.8 µM, the Cmax (in vivo [3]; dose-normalized, mice, 1 mg kg-1 iv bolus) was 1820 nM/(nmol kg-1) and the AUC0-inf/Dose (in vivo [3]; [6]) was 3260 h nM/(nmol kg-1) and 5150 h nM/(nmol kg-1) and 5870 h nM/(nmol kg-1). The AUC0-t/Dose (in vivo [3]; [6]) was 2600 h nM/(nmol kg-1) and 5020 h nM/(nmol kg-1) and 5730 h nM/(nmol kg-1), the CL (in vivo [3]; [6]) was 3.2 mL/min/kg and 2.8 mL/min/kg and the “CL PL QH” value (in vivo [3]; [6]) was 5.7% and 3.6% and 3.2%. The MRT (in vivo [3]; [6]) was 5.1 h and 5.3 h, the “Plasma concentration 0.1 h” value (in vivo [3]; [6]) was 128 nM and 127 nM and 114 nM and the “Plasma concentration 0.5 h” value (in vivo [3]; [6]) was 47.9 nM and 51.6 nM and 58 nM. For the same compound, the “Plasma concentration 1 h” value (in vivo [3]; [6]) was 44.8 nM and 45.0 nM and 44.5 nM, the “Plasma concentration 2 h” value (in vivo [3]; [6]) was 32.5 nM and 36.4 nM and 39.6 nM and the “Plasma concentration 4 h” value (in vivo [3]; [6]) was 17.3 nM and 22.2 nM and 13.8 nM. For the same compound, the Vss (in vivo [3]; [6]) was 1.0 L/kg and 0.9 L/kg, the t1/2 (in vivo [3]; [6]) was 4.8 h and 4.9 h and the “Plasma concentration 6 h” value (in vivo [3]; iv bolus, individual animals 1-3, BLOQ <1.00 nmol/l) was 11.6 nM and 14.7 nM and 20.6 nM. The Cmax (in vivo [3]; iv bolus, individual animals 1-3, read-out: Cmax) was 127 nM and 114 nM, the AUC0-inf/Dose (in vivo [3]; iv bolus, mice, Mean) was 4760 h nM/(nmol kg-1) and the AUC0-t/Dose (in vivo [3]; iv bolus, mice, Mean) was 4450 h nM/(nmol kg-1). The “CL PL QH” value (in vivo [3]; iv bolus, mice, Mean) was 4.1%, the “Plasma concentration 0.1 h” value (in vivo [3]; iv bolus, mice, Mean) was 123 nM and the “Plasma concentration 0.5 h” value (in vivo [3]; iv bolus, mice, Mean) was 52.5 nM. For the same compound, the “Plasma concentration 1 h” value (in vivo [3]; iv bolus, mice, Mean) was 44.8 nM, the “Plasma concentration 2 h” value (in vivo [3]; iv bolus, mice, Mean) was 36.2 nM and the “Plasma concentration 4 h” value (in vivo [3]; iv bolus, mice, Mean) was 17.8 nM. For the same compound, the “Plasma concentration 6 h” value (in vivo [3]; [7]) was 15.6 nM, the “Plasma concentration 24 h” value (in vivo [3]; [7]) was 1.3 nM and the tmax (in vivo [3]; male, BALB/cAnNCrl, mouse, in vivo, 0.0677 umol/kg, iv bolus, individual animals 1-3) was 6 min. The clearance (in vivo [3]; [8]) was 5.1 mL/min/kg, the half-life (in vivo [3]; [8]) was 2.7 h and the Cmax (in vivo [3]; male, BALB/cAnNCrl, mouse, in vivo, iv, 0.0677 umol/kg, iv bolus, individual animals 1-3, read-out: Cmax) was 128 nM. For the same compound, the MRT (in vivo [3]; male, BALB/cAnNCrl, mouse, in vivo, iv, 0.0677 umol/kg, iv bolus, individual animals 1-3, read-out: MRT) was 3.6 h, the Vd (in vivo [3]; male, BALB/cAnNCrl, mouse, in vivo, iv, 0.0677 umol/kg, iv bolus, individual animals 1-3, read-out: Vss) was 1.1 L/kg and the clearance (in vivo [3]; [9]) was 3.7 mL/min/kg. It also gave a half-life (in vivo [3]; [9]) of 4.1 h, a Cmax (in vivo [3]; male, BALB/cAnNCrl, mouse, in vivo, iv, 0.0677 umol/kg, iv bolus, mice, Mean, read-out: Cmax) of 123 nM and an MRT (in vivo [3]; male, BALB/cAnNCrl, mouse, in vivo, iv, 0.0677 umol/kg, iv bolus, mice, Mean, read-out: MRT) of 4.7 h. The Vd (in vivo [3]; male, BALB/cAnNCrl, mouse, in vivo, iv, 0.0677 umol/kg, iv bolus, mice, Mean, read-out: Vss) was 1 L/kg, the Vd (in vivo [3]; male, BALB/cAnNCrl, mouse, in vivo, iv, 1 mg/kg, mice, 1 mg kg-1 iv bolus, read-out: VSS) was 0.95 L/kg and the clearance (in vivo [3]; male, BALB/cAnNCrl, mouse, in vivo, iv, 1 mg/kg, plasma clearance, mice, 1 mg kg-1 iv bolus) was 3.73 mL/min/kg. The half-life (in vivo [3]; male, BALB/cAnNCrl, mouse, in vivo, iv, 1 mg/kg, plasma, mice, 1 mg kg-1 iv bolus) was 3.33 h, the “Plasma concentration 0.5 h” value (in vivo [4]; [10]) was “BLOQ” and the “Plasma concentration 1 h” value (in vivo [4]; [10]) was “BLOQ”. The “Plasma concentration 2 h” value (in vivo [4]; [10]) was “BLOQ”, the “Plasma concentration 4 h” value (in vivo [4]; [10]) was “BLOQ” and the “Plasma concentration 6 h” value (in vivo [4]; [10]) was “BLOQ”. The “Plasma concentration 24 h” value (in vivo [4]; [10]) was “BLOQ”, the “Plasma concentration […]” value (in vivo [4]; [10]) was “BLOQ” and the “Plasma concentration 0.5 h” value (in vivo [4]; [11]) was “BLOQ”. For the same compound, the “Plasma concentration 1 h” value (in vivo [4]; [11]) was “BLOQ”, the “Plasma concentration 2 h” value (in vivo [4]; [11]) was “BLOQ” and the “Plasma concentration 4 h” value (in vivo [4]; [11]) was “BLOQ”. For the same compound, the “Plasma concentration 6 h” value (in vivo [4]; [11]) was “BLOQ”, the “Plasma concentration 24 h” value (in vivo [4]; [11]) was “BLOQ” and the “Plasma concentration […]” value (in vivo [4]; [11]) was “BLOQ”.
For `COc1c(N2C[C@@H]3CCCN[C@@H]3C2)c(F)cc2c(=O)c(C(=O)O)cn(C3CC3)c12` [Moxifloxacin, reference compound], the MBC (Msm #607; ATCC607, read-out: MBC (from Set 3) Msm ATCC 607) was 0.13 µg/mL and 0.31 µM, the MBC (Msm #607; read-out: MBC Msm #607, individual example) was 0.3 µM and 0.1 µg/mL and the MBC (Mtb H37Rv; individual example, read-out: MBC Mtb H37Rv) was 0.3 µM and 0.1 µg/mL. The MBC (Mtb H37Rv; read-out: MBC (from Set 3) Mtb H37Rv) was 0.13 µg/mL and 0.31 µM, the “Supplementary Figure 2 dose-response value, starvation-induced non-replicating H37Rv cells” value ([5]; Conc. 0.0488281 µM) was 96.0307 and 94.5408 and 97.6321 and the “Supplementary Figure 2 dose-response value, starvation-induced non-replicating H37Rv cells” value ([5]; Conc. 0.0976562 µM) was 87.2508 and 88.414 and 86.3824. The “Supplementary Figure 2 dose-response value, starvation-induced non-replicating H37Rv cells” value ([5]; Conc. 0.195312 µM) was 85.0837 and 87.4102 and 85.2989, the “Supplementary Figure 2 dose-response value, starvation-induced non-replicating H37Rv cells” value ([5]; Conc. 0.390625 µM) was 85.4263 and 85.2112 and 85.8964 and the “Supplementary Figure 2 dose-response value, starvation-induced non-replicating H37Rv cells” value ([5]; Conc. 0.78125 µM) was 82.9485 and 82.598 and 80.152. The “Supplementary Figure 2 dose-response value, starvation-induced non-replicating H37Rv cells” value ([5]; Conc. 1.5625 µM) was 77.7618 and 79.2358 and 77.6503, the “Supplementary Figure 2 dose-response value, starvation-induced non-replicating H37Rv cells” value ([5]; Conc. 3.125 µM) was 77.3794 and 79.3075 and 79.2756 and the “Supplementary Figure 2 dose-response value, starvation-induced non-replicating H37Rv cells” value ([5]; Conc. 6.25 µM) was 72.6389 and 74.9414 and 71.1889. The “Supplementary Figure 2 dose-response value, starvation-induced non-replicating H37Rv cells” value ([5]; Conc. 25 µM) was 59.9471 and 62.2337 and 59.4213, the “Supplementary Figure 2 dose-response value, starvation-induced non-replicating H37Rv cells” value ([5]; Conc. 50 µM) was 60.21 and 62.4647 and 60.935 and the “Supplementary Figure 2 dose-response value, starvation-induced non-replicating H37Rv cells” value ([5]; Conc. 100 µM) was 55.7882 and 57.6844 and 55.7723.
